Test results published in patent US12509423B2, “Compound, aldehyde dehydrogenase 2 activating agent, pharmaceutical composition, and therapeutic and/or prophylactic drug” (Alchemedicine, Inc., priority 2020, dated 2025).

Columns and labels:
[1] = target: T1, human recombinant ALDH2 enzyme (Homo sapiens, UniProt P05091); assay: ALDH2 activation effect (acetaldehyde oxidation rate, PicoProbe Aldehyde dehydrogenase Activity Assay Kit); format: biochemical
T1 construct: purchased BioVision Inc
T1 sequence (P05091 18-517): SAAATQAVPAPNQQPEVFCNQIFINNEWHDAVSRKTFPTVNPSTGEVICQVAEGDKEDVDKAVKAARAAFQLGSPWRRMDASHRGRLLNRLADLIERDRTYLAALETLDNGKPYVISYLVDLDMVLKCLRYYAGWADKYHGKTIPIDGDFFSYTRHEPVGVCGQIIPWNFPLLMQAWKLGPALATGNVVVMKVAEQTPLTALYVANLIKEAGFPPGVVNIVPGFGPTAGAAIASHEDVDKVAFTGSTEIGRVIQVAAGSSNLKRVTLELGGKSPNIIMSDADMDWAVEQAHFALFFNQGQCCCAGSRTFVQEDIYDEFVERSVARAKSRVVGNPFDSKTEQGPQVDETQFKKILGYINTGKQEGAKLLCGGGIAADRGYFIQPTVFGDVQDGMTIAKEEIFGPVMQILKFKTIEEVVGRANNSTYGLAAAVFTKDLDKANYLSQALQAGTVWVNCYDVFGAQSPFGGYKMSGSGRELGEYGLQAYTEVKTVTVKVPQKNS
Procedure: The activation effect of each test compound on the acetaldehyde oxidation rate of ALDH2 was measured with the following method. A test was conducted by using a commercially available PicoProbe™ Aldehyde dehydrogenase Activity Assay Kit (manufactured by BioVision Inc.) with reference to an instruction attached to the product under the following conditions. To each well of a 384-well plate, the following (1) to (3) were sequentially added with a pipette: • (1) 10 μL of solution obtained by dissolving and diluting a human recombinant ALDH2 enzyme (manufactured by BioVision Inc.) with ALDH assay Buffer to reach 3-μg/mL; • (2) 10 μL of 30 μM or 90 μM test compound solution (with 3% DMSO) prepared by using ALDH assay Buffer; and • (3) 10 μL of Reaction mix composed with ratio of 8.6 μL of ALDH assay Buffer, 0.6 μL of PicoProbe, 0.3 μL of Substrate Mix, and 1.5 μL of Acetaldehyde.
Before addition of (3), incubation was performed at room temperature for 5 minutes. After addition of (3), fluorescence intensity was measured at room temperature every 2.5 minutes over a period of 180 minutes by using an EnSight (manufactured by PerkinElmer Inc.). Wavelengths of 535 nm and 587 nm were used for fluorescence intensities of excitation and -emission, respectively.

[2] = target: hERG (human Ether-a-go-go Related Gene) channel (Homo sapiens, UniProt Q12809); assay: hERG channel inhibition effect (whole-cell patch clamp); format: cell-based; details: 22 to 25° C.
Chain of hERG (human Ether-a-go-go Related Gene) channel (Q12809 whole entry): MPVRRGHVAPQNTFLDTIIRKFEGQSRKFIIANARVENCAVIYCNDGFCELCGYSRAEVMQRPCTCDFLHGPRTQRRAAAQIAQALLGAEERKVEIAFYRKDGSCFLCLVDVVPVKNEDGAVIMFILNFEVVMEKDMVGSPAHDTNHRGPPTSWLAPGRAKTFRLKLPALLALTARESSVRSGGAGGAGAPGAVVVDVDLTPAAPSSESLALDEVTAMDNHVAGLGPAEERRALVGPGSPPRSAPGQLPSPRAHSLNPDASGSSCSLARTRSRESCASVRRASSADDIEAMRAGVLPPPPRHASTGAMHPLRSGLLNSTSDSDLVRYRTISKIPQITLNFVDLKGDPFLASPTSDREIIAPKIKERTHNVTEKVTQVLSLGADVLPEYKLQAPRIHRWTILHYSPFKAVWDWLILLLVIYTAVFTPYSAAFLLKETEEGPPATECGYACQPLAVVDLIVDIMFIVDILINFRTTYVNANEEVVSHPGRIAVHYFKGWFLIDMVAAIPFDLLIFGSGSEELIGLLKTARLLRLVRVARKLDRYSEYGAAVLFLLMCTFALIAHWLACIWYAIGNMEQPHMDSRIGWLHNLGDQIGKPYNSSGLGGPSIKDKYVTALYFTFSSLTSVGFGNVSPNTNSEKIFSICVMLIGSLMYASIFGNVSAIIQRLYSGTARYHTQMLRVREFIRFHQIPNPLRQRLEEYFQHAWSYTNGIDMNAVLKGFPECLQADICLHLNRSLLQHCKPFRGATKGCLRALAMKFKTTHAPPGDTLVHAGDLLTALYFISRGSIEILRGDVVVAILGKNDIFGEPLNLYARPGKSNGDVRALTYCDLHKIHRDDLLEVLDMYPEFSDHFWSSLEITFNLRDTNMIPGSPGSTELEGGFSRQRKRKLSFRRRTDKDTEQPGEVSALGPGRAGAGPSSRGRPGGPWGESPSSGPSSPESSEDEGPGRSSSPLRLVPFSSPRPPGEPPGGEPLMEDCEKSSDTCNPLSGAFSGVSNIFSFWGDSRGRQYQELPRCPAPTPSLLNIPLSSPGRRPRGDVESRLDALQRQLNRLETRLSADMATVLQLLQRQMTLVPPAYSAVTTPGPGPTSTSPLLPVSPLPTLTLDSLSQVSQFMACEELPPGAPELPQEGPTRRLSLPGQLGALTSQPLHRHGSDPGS
Procedure: The hERG (human Ether-a-go-go Related Gene) channel inhibition effect of each test compound was examined with the following patch clamp method.
Under a fixed potential, an hERG current that passed through the whole cell membrane was recorded with the whole-cell patch clamp method.
To confirm the hERG current, the holding potential was set to −80 mV, and depolarizing pulses at −50 mV for 110 msec and at 20 mV for 4 sec and a subsequent repolarizing pulse at −50 mV for 2 sec were provided at a frequency of once per 15 seconds. After the stabilization of the hERG tail current obtained was confirmed, an application was initiated. The pulses were continuously provided also during the application.
The sampling frequency was set to 5 kHz, and Lowpass Filter was applied at 2 kHz. […]
hERG currents were measured by using an amplifier for patch clamping (Axopatch 200B, Molecular Devices, LLC), and electric signals obtained were recorded in a computer via recording/analysis software for patch clamping (pCLAMP 10, Molecular Devices, LLC).
The maximum tail current value was determined on the basis of the current value with the depolarizing pulse at −50 mV for 110 msec, and the change rate (suppression rate) 5 minutes after the initiation of application to the maximum tail current value before application of the test compound was calculated.

[3] = Metabolic stability with mouse hepatic microsomes; format: in vitro ADME
Procedure: Metabolic stability in mouse hepatic microsomes was evaluated with the following method.
• (1) Mouse hepatic microsomes: 20 mg/mL • (2) Test compound: 1.1 mM DMSO solution • (3) Potassium phosphate buffer solution: 66.7 mM (pH 7.4) • (4) NADPH solution: 10 mM in potassium phosphate buffer solution • (5) Quenching solution: 0.5% formic acid-acetonitrile solution with warfarin as internal standard substance 2. Method
Into a propylene tube, 971.5 μL of the potassium phosphate buffer solution and 27.5 μL of the mouse hepatic microsomes were put and suspended. Thereto, 1 μL of a test compound was added, and 180 μL was taken from this mixture and transferred into another tube. The mixture was preincubated at 37° C. for 5 minutes, and 20 μL of the NADPH solution (for the case with an incubation time of 30 minutes) or 20 μL of the potassium phosphate buffer solution (for the case with an incubation time of 0 minutes) was then added thereto. After incubation, 200 μL of the quenching solution was added to terminate the reaction. Subsequently, centrifugation was performed at 3220×g for 20 minutes, and the concentration of the unchanged form of the test compound in 200 μL of the supernatant was measured with LC-MS/MS. On the basis of the peak area obtained for the unchanged form, the residual rate (%) of the unchanged form was calculated as that for the case with an incubation time of 0 minutes was assumed as 100%.

[4] = Metabolic stability with human hepatic microsomes; format: in vitro ADME; details: human hepatic microsomes 0.1 mg protein/mL, 0.1 μmol/L test compound, after 30 minutes, 37° C.
Procedure: The specific method is as follows.
• (1) Fifty microliter-portions were taken from 0.2 μmol/L test compound diluted with β-NADPH solution. • (2) Fifty microliters of 0.2 mg protein/mL human hepatic microsome solution was added to each (except for a sample with a reaction time of 0 minutes). • (3) Incubation was performed with shaking at 37° C. for 30 minutes (concentration in reaction sample: 0.1 μmol/L test compound, 0.1 mg protein/mL human hepatic microsome). • (4) After incubation, 400 μL of methanol was added to terminate the reaction. • (5) To the sample with a reaction time of 0 minutes, 50 μL of 0.2 mg protein/mL hepatic microsome solution was added. • (6) Each of the samples from (4) and (5) was left to stand at −20° C. for 30 minutes or longer, and then centrifuged at 4° C. and 3,000 rpm for approximately 10 minutes. • (7) The supernatant was subjected to measurement with LC/MS/MS, and, based on the peak area obtained for the unchanged form, the residual rate (%) of the unchanged form was calculated as that for the case with an incubation time of 0 minutes was assumed as 100%.

[5] = system: pain induced by carrageenan (mechanical allodynia); assay: Suppression effect on pain induced by carrageenan (von Frey escape score); format: in vivo, C57BL/6J mice; details: mean ± SE
Procedure: This experiment was carried out with reference to Science Translational Medicine 6, 251ra118 (2014). Animals used were 7-week-old male C57BL/6J mice (Charles River Laboratories Japan, Inc.). To induce mechanical allodynia to a sole part, carrageenan was subcutaneously administered to the sole of the left hind limb of each mouse. The escape response against mechanical stimulation 180 minutes after the induction was measured by using a von Frey filament with bending force (0.16 grams) to the sole surface of the left hind limb in the ascending direction. […] The commercially available statistical program SAS SYSTEM (SAS Software Release 9.1.3; SAS Institute Japan Ltd.) was used for the significance test.

acetaldehyde oxidation rate (rate with no test compound assumed as 100%) ([1]; concentration of test compound 10 μM): 196%
acetaldehyde oxidation rate (rate with no test compound assumed as 100%) ([1]; concentration of test compound 30 μM): 238%
metabolic stability in mouse hepatic microsomes (in words) [3]: confirmed to have stability
Residual rate (%) of unchanged form ([3]; mouse hepatic microsomes, after 30 minutes, 37° C., NADPH): 90%
Residual rate (%) of unchanged form [4]: 90%
Compound: COCc1ccc(CNC(=O)c2cc(-c3ncccc3CO)ccc2F)cc1F [Example 1, 2-Fluoro-N-(3-fluoro-4-(methoxymethyl)benzyl)-5-(3-(hydroxymethyl)pyridin-2-yl)benzamide]
IC50 [2]: > 100 µM
Pain-related total score ([5]; 2 mg/kg s.c. three times, 180 min after induction with carrageenan): 10.5 ± 1.6
Pain-related total score ([5]; 2 mg/kg s.c. three times, Pre (before carrageenan treatment)): 3.0 ± 0.3
Pain-related total score ([5]; 6 mg/kg s.c. three times, 180 min after induction with carrageenan, significant difference from Vehicle group): 8.3 ± 1.0
Pain-related total score ([5]; 6 mg/kg s.c. three times, Pre (before carrageenan treatment)): 3.0 ± 0.3
Pain-related total score ([5]; 20 mg/kg s.c. three times, 180 min after induction with carrageenan): 8.6 ± 1.4
Pain-related total score ([5]; 20 mg/kg s.c. three times, Pre (before carrageenan treatment)): 3.0 ± 0.3
